Results: PMC8079033, “Design, synthesis, anticancer evaluation, and molecular modelling studies of novel tolmetin derivatives as potential VEGFR-2 inhibitors and apoptosis inducers” (Journal of Enzyme Inhibition and Medicinal Chemistry, 2021)

What was measured:
[1] = test system: panel of 60 tumour cell lines; test: NCI 60-cell line one-dose screen, summary over the panel; type: cell-based, human; conditions: 10 µM
Procedure: Anticancer activity screening of the newly synthesised compounds was measured in vitro utilising 60 different human tumour cell lines provided by US National Cancer Institute according to previously reported standard procedure[41–43] as follows: Cells are inoculated into 96-well microtiter plates in 100 ml. After cell inoculation, the microtiter plates are incubated at 37 °C, 5% CO2, 95% air, and 100% relative humidity for 24 h prior to addition of experimental compounds. After 24 h, two plates of each cell line are fixed in situ with TCA, to represent a measurement of the cell population for each cell line at the time of compound addition (Tz). Experimental compounds are solubilised in dimethyl sulfoxide at 400-fold the desired final maximum test concentration and stored frozen prior to use. At the time of compound addition, an aliquot of frozen concentrate is thawed and diluted to twice the desired final maximum test concentration with a complete medium containing […] gentamicin. Aliquots of […] of the compounds dilutions are added to the appropriate microtiter wells already containing 100 ml of medium, resulting in the required final compound concentration. Following compound addition, the plates are incubated for an additional 48 h at 37 °C, 5% CO2, 95% air, and 100% relative humidity. […] The bound stain is subsequently solubilised with a 10 mM trizma base, and the absorbance is read on an automated plate reader at a wavelength of 515 nm. […] Using the absorbance measurements [time zero, (Tz), control growth, (C), and test growth in the presence of compound (Ti)], the percentage growth is calculated for each compound. […]
Fifteen newly synthesised compounds were tested for their in vitro antiproliferative activity by the National Cancer Institute (NCI), Maryland, USA[50], under the Developmental Therapeutic Program (DTP)[41]^,[43]^,[51]^,[52]. The tested compounds were evaluated at a concentration of 10 µM on a panel of 60 tumour cell lines representing leukaemia and non-small cell lung, colon, CNS, melanoma, ovarian, renal, prostate, and breast cancers. […]

[2] = test system: IGROV1; test: NCI 60-cell line one-dose antiproliferative screen (SRB); type: cell-based; conditions: Homo sapiens, IGROV-1, read-out: growth inhibition % (GI%)
Procedure: (§1) Anticancer activity screening of the newly synthesised compounds was measured in vitro utilising 60 different human tumour cell lines provided by US National Cancer Institute according to previously reported standard procedure[41–43] as follows: Cells are inoculated into 96-well microtiter plates in 100 ml. After cell inoculation, the microtiter plates are incubated at 37 °C, 5% CO2, 95% air, and 100% relative humidity for 24 h prior to addition of experimental compounds. After 24 h, two plates of each cell line are fixed in situ with TCA, to represent a measurement of the cell population for each cell line at the time of compound addition (Tz). Experimental compounds are solubilised in dimethyl sulfoxide at 400-fold the desired final maximum test concentration and stored frozen prior to use. At the time of compound addition, an aliquot of frozen concentrate is thawed and diluted to twice the desired final maximum test concentration with a complete medium containing […] gentamicin. Aliquots of […] of the compounds dilutions are added to the appropriate microtiter wells already containing 100 ml of medium, resulting in the required final compound concentration. Following compound addition, the plates are incubated for an additional 48 h at 37 °C, 5% CO2, 95% air, and 100% relative humidity. For adherent cells, the assay is terminated by the addition of cold trichloroacetic acid (TCA). Cells are fixed in situ by the gentle addition of 50 ml of cold 50% (w/v) TCA (final concentration, 10% TCA) and incubated for […] at 4 °C. The supernatant is discarded, and the plates are washed five times with tap water and air-dried. Sulforhodamine B (SRB) solution (100 ml) at 0.4% (w/v) in 1% acetic acid is added to each well, and plates are incubated for 10 min at room temperature. After staining, the unbound dye is removed by washing five times with 1% acetic acid and the plates are air-dried. The bound stain is subsequently solubilised with a 10 mM trizma base, and the absorbance is read on an automated plate reader at a wavelength of 515 nm. For suspension cells, the methodology is the same except that the assay is terminated by fixing settled cells at the bottom of the wells by gently adding 50 ml of 80% TCA (final concentration, 16% TCA). Using the absorbance measurements [time zero, (Tz), control growth, (C), and test growth in the presence of compound (Ti)], the percentage growth is calculated for each compound. The One-dose data are reported as a mean graph of the percent growth of treated cells. The reported number is growth relative to the no-compound control, and relative to the time zero number of cells. This allows the detection of both growth inhibition and lethality.
(§2) Fifteen newly synthesised compounds were tested for their in vitro antiproliferative activity by the National Cancer Institute (NCI), Maryland, USA[50], under the Developmental Therapeutic Program (DTP)[41]^,[43]^,[51]^,[52]. The tested compounds were evaluated at a concentration of 10 µM on a panel of 60 tumour cell lines representing leukaemia and non-small cell lung, colon, CNS, melanoma, ovarian, renal, prostate, and breast cancers. The antiproliferative activity was presented by the NCI as percent growth of the treated cells and is presented in Table 1 as growth inhibition percentage (GI%) achieved by the tested compounds.

[3] = test system: LOX IMVI; test: as above; type: cell-based; conditions: Homo sapiens, read-out: growth inhibition % (GI%)
Procedure: as §1, §2

[4] = test system: 786-0; test: as above; type: cell-based; conditions: Homo sapiens, read-out: growth inhibition % (GI%)
Procedure: as §1, §2

[5] = test system: MDA-MB-231/ATCC; test: as above; type: cell-based; conditions: Homo sapiens, read-out: growth inhibition % (GI%)
Procedure: as §1, §2

[6] = test system: T-47D; test: as above; type: cell-based; conditions: Homo sapiens, T47D, read-out: growth inhibition % (GI%)
Procedure: as §1, §2

[7] = test system: MDA-MB-468; test: as above; type: cell-based; conditions: Homo sapiens, read-out: growth inhibition % (GI%)
Procedure: as §1, §2

[8] = test system: HCT-15; test: as above; type: cell-based; conditions: Homo sapiens, read-out: growth inhibition % (GI%)
Procedure: as §1, §2

[9] = test system: OVCAR-5; test: as above; type: cell-based; conditions: Homo sapiens, read-out: growth inhibition % (GI%)
Procedure: as §1, §2

[10] = test system: OVCAR-8; test: as above; type: cell-based; conditions: Homo sapiens, read-out: growth inhibition % (GI%)
Procedure: as §1, §2

[11] = test system: SNB-75; test: as above; type: cell-based; conditions: Homo sapiens, read-out: growth inhibition % (GI%)
Procedure: as §1, §2

[12] = test system: TK-10; test: as above; type: cell-based; conditions: Homo sapiens, read-out: growth inhibition % (GI%)
Procedure: as §1, §2

[13] = test system: OVCAR-4; test: as above; type: cell-based; conditions: Homo sapiens, read-out: growth inhibition % (GI%)
Procedure: as §1, §2

[14] = test system: SW-620; test: as above; type: cell-based; conditions: Homo sapiens, read-out: growth inhibition % (GI%)
Procedure: as §1, §2

[15] = test system: HS 578 T; test: as above; type: cell-based; conditions: Homo sapiens, read-out: growth inhibition % (GI%)
Procedure: as §1, §2

[16] = test system: SF-295; test: as above; type: cell-based; conditions: Homo sapiens, read-out: growth inhibition % (GI%)
Procedure: as §1, §2

[17] = test system: CAKI-1; test: as above; type: cell-based; conditions: Homo sapiens, read-out: growth inhibition % (GI%)
Procedure: as §1, §2

[18] = test system: SR; test: as above; type: cell-based; conditions: Homo sapiens, read-out: growth inhibition % (GI%)
Procedure: as §1, §2

[19] = test system: SF-268; test: as above; type: cell-based; conditions: Homo sapiens, read-out: growth inhibition % (GI%)
Procedure: as §1, §2

[20] = test system: BT-5; test: as above; type: cell-based; conditions: Homo sapiens, read-out: growth inhibition % (GI%)
Procedure: as §1, §2

[21] = test system: MCF7; test: as above; type: cell-based; conditions: Homo sapiens, read-out: growth inhibition % (GI%)
Procedure: as §1, §2

[22] = test system: MDA-MB-435; test: as above; type: cell-based; conditions: Homo sapiens, read-out: growth inhibition % (GI%)
Procedure: as §1, §2

[23] = test system: SNB-19; test: as above; type: cell-based; conditions: Homo sapiens, read-out: growth inhibition % (GI%)
Procedure: as §1, §2

[24] = test system: K-562; test: as above; type: cell-based; conditions: Homo sapiens, K562, read-out: growth inhibition % (GI%)
Procedure: as §1, §2

[25] = test system: ACHN; test: as above; type: cell-based; conditions: Homo sapiens, read-out: growth inhibition % (GI%)
Procedure: as §1, §2

[26] = test system: HOP-62; test: as above; type: cell-based; conditions: Homo sapiens, read-out: growth inhibition % (GI%)
Procedure: as §1, §2

[27] = test system: HL-60 (TB); test: as above; type: cell-based; conditions: Homo sapiens, read-out: growth inhibition % (GI%)
Procedure: as §1, §2

[28] = test system: NCI-H226; test: as above; type: cell-based; conditions: Homo sapiens, read-out: growth inhibition % (GI%)
Procedure: as §1, §2

[29] = test system: A549/ATCC; test: as above; type: cell-based; conditions: Homo sapiens, read-out: growth inhibition % (GI%)
Procedure: as §1, §2

[30] = test system: UACC-257; test: as above; type: cell-based; conditions: Homo sapiens, read-out: growth inhibition % (GI%)
Procedure: as §1, §2

[31] = test system: SF-539; test: as above; type: cell-based; conditions: Homo sapiens, read-out: growth inhibition % (GI%)
Procedure: as §1, §2

[32] = test system: EKVX; test: as above; type: cell-based; conditions: Homo sapiens, read-out: growth inhibition % (GI%)
Procedure: as §1, §2

[33] = test system: HCT-116; test: as above; type: cell-based; conditions: Homo sapiens, read-out: growth inhibition % (GI%)
Procedure: as §1, §2

[34] = test system: U251; test: as above; type: cell-based; conditions: Homo sapiens, U-251, read-out: growth inhibition % (GI%)
Procedure: as §1, §2

[35] = test system: A498; test: as above; type: cell-based; conditions: Homo sapiens, read-out: growth inhibition % (GI%)
Procedure: as §1, §2

[36] = test system: SN 12 C; test: as above; type: cell-based; conditions: Homo sapiens, SN12C, read-out: growth inhibition % (GI%)
Procedure: as §1, §2

[37] = test system: NCI-H23; test: as above; type: cell-based; conditions: Homo sapiens, read-out: growth inhibition % (GI%)
Procedure: as §1, §2

[38] = test system: NCI-H522; test: as above; type: cell-based; conditions: Homo sapiens, read-out: growth inhibition % (GI%)
Procedure: as §1, §2

[39] = test system: SK-MEL-5; test: as above; type: cell-based; conditions: Homo sapiens, read-out: growth inhibition % (GI%)
Procedure: as §1, §2

[40] = test system: M14; test: as above; type: cell-based; conditions: Homo sapiens, read-out: growth inhibition % (GI%)
Procedure: as §1, §2

[41] = test system: UO-31; test: as above; type: cell-based; conditions: Homo sapiens, read-out: growth inhibition % (GI%)
Procedure: as §1, §2

[42] = test system: UACC-62; test: as above; type: cell-based; conditions: Homo sapiens, read-out: growth inhibition % (GI%)
Procedure: as §1, §2

Structure (SMILES): Cc1ccc(C(=O)c2ccc(CC(=O)NN=Cc3ccc4c(c3)OCO4)n2C)cc1 [Compound 5d, N′-(Benzo[d][1,3]dioxol-5-ylmethylene)-2–(1-methyl-5–(4-methylbenzoyl)-1H-pyrrol-2-yl)acetohydrazide]
- antiproliferative activity over the panel (in words) [1]: inactive against most investigated cell lines
- inhibition at 10 µM [2]: < 10%
- inhibition at 10 µM [3]: < 10%
- inhibition at 10 µM [4]: < 10%
- inhibition at 10 µM [5]: < 10%
- inhibition at 10 µM [6]: 15.6%
- inhibition at 10 µM [7]: < 10%
- inhibition at 10 µM [8]: < 10%
- inhibition at 10 µM [9]: < 10%
- inhibition at 10 µM [10]: < 10%
- inhibition at 10 µM [11]: < 10%
- inhibition at 10 µM [12]: < 10%
- inhibition at 10 µM [13]: < 10%
- inhibition at 10 µM [14]: < 10%
- inhibition at 10 µM [15]: < 10%
- inhibition at 10 µM [16]: < 10%
- inhibition at 10 µM [17]: < 10%
- inhibition at 10 µM [18]: < 10%
- inhibition at 10 µM [19]: < 10%
- inhibition at 10 µM [20]: < 10%
- inhibition at 10 µM [21]: < 10%
- inhibition at 10 µM [22]: < 10%
- inhibition at 10 µM [23]: < 10%
- inhibition at 10 µM [24]: < 10%
- inhibition at 10 µM [25]: < 10%
- inhibition at 10 µM [26]: < 10%
- inhibition at 10 µM [27]: < 10%
- inhibition at 10 µM [28]: < 10%
- inhibition at 10 µM [29]: < 10%
- inhibition at 10 µM [30]: < 10%
- inhibition at 10 µM [31]: < 10%
- inhibition at 10 µM [32]: < 10%
- inhibition at 10 µM [33]: < 10%
- inhibition at 10 µM [34]: < 10%
- inhibition at 10 µM [35]: 13.1%
- inhibition at 10 µM [36]: < 10%
- inhibition at 10 µM [37]: < 10%
- inhibition at 10 µM [38]: 12.4%
- inhibition at 10 µM [39]: < 10%
- inhibition at 10 µM [40]: < 10%
- inhibition at 10 µM [41]: 22.2%
- inhibition at 10 µM [42]: < 10%
